Results published in article PMC4823954, “From fighting depression to conquering tumors: a novel tricyclic thiazepine compound as a tubulin polymerization inhibitor” (Cell Death & Disease, 2016).
Like-named read-outs stand apart in the source and are kept apart here.

How the values were obtained:
plasma stability = assay type: in vitro ADME; details: human, read-out: T1/2 in human plasma
From the text: As in vivo investigations are generally time consuming and expensive, it is advantageous to eliminate those compounds that are not suitable for animal experiments. One of the necessary steps is to screen the initial hits using assays testing their possible behaviors in vivo. To evaluate the drug-like properties of TBPT, a panel of in vitro assays was preformed (Table 1). The parallel artificial membrane permeability assay (PAMPA) was used to evaluate the cell permeability of the compounds. Compounds with a Pe >[…] are classified as highly permeable. […] The Caco-2 assay was used to predict the oral absorption values of the compounds in vivo. Compounds with a Caco-2 efflux ratio >2 may be subject to active efflux and should not be developed further. […] The half-life (T1/2) in human liver microsomes is used to predict the metabolism properties of compounds in vivo. […] A very long T1/2 (>24 h) increases the risk of cumulative toxicity and is not desirable. […] T1/2 in plasma indicates the stability of the drug in human blood; the high T1/2 values of these compounds indicated better stability in vivo. Plasma protein binding influences the distribution of drugs into body tissues, and compounds with high plasma protein binding (>99%) are limited in terms of the amount of free compound that are available to act on the targeted tissue. […]

LRRK2(G2019S) = biological target: T1, LRRK2(G2019S) (Homo sapiens, UniProt Q5S007, G2019S); assay: KINOMEscan; assay type: binding; details: read-out: % Ctrl
T1 construct: purchased DiscoveRx KINOMEscan

FLT3(D835H) = biological target: T2, FLT3(D835H) (Homo sapiens, UniProt P36888, D835H); assay: KINOMEscan; assay type: binding; details: read-out: % Ctrl
T2 construct: purchased DiscoveRx KINOMEscan

EGFR(G719C) = biological target: T3, EGFR(G719C) (Homo sapiens, UniProt P00533, G719C); assay: KINOMEscan; assay type: binding; details: read-out: % Ctrl
T3 construct: purchased DiscoveRx KINOMEscan

PKNB(M.tuberculosis) = biological target: T4, PKNB(M.tuberculosis) (Mycobacterium tuberculosis, UniProt P9WI81); assay: KINOMEscan; assay type: binding; details: read-out: % Ctrl
T4 construct: purchased DiscoveRx KINOMEscan

[1] = biological target: T5, ABL1(Q252H)-phosphorylated (Homo sapiens, UniProt P00519, Q252H); assay: KINOMEscan; assay type: binding; details: read-out: % Ctrl
T5 construct: purchased DiscoveRx KINOMEscan

caspases 8, 9 and 3/7 [2] = assay: Caspases activity assay in H460TaxR cells; assay type: cell-based, human; details: 2 μM, 6, 12 and 24 h
Procedure: (§1) The activities of caspases 8, 9, and 3/7 in H460TaxR and H460 cells were examined via a fluorescence-based assay using Caspase-Glo 8, Caspase-Glo 9 Assay kits and Apo-ONE Homogeneous Caspase-3/7 Assay Kit (Promega, Madison, WI, USA). Cells (1 × 10^6 cells in 10 ml medium) were seeded in 10-cm dishes. After 24 h, the cells were treated with TBPT (2 μM) or DMSO for 6, 12 and 24 h. Then, the cells were washed in PBS and collected. Cell lysates were prepared conventionally in RIPA lysis buffer. Protein concentrations were determined using the BCA protein assay. Equal amounts (10 μg) of total protein of samples were added to 96-well culture plates containing 100 μl caspases 8, 9 and 3/7 activity working solution. After the samples were incubated for 1 h at RT, the fluorescence of each well was determined at 499 nm with an emission wavelength of 521 nm using a multimode plate reader (Victor X2, Perkin Elmer, Boston, MA, USA). The fluorescence intensities are proportional to the activities of caspases 8, 9 and 3/7.

[3] = biological target: T6, EGFR(L747-S752del, P753S) (Homo sapiens, UniProt P00533, DEL747-752/P753S); assay: KINOMEscan; assay type: binding; details: read-out: % Ctrl
T6 construct: purchased DiscoveRx KINOMEscan
T6 sequence (P00533 with tags, fused parts or gaps DEL747-752/P753S limits assumed): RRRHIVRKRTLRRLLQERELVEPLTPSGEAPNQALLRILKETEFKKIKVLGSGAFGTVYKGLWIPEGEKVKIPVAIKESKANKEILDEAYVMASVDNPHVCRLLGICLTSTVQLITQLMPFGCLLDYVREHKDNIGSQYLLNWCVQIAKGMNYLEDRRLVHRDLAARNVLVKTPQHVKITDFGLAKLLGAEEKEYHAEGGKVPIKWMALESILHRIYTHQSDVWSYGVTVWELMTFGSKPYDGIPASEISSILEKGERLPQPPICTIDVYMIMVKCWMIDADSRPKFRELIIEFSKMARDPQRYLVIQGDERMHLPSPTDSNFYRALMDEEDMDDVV

mice hippocampus cells = assay: Cell cycle and apoptosis analysis; details: 2 μM
Procedure: Cell cycle and apoptosis analyses were performed on a Guava EasyCyte Flow Cytometry System (Millipore, Billerica, MA, USA). Cells were seeded in 6-cm culture plates and treated with 2 μM TBPT or an equal volume of DMSO on the next day for the indicated times. To analyze the intracellular DNA content, cells were harvested, washed twice in PBS and fixed in 70% ethanol at −20 °C overnight. After the cells were washed in PBS, they were stained with Guava cell cycle reagent (Millipore) and analyzed via flow cytometry. For cell apoptosis analysis, the cells were harvested, washed in PBS, stained with PI/Annexin V-FITC reagent (Life Technologies) and analyzed by flow cytometry.
The cell cycle (a) and apoptosis (b) analysis of mice hippocampus cells. The new-born mice hippocampus cells were derived and cultured as previously report (F Lu et al. Cell Death and Disease, 2012). Cells were treated with DMSO or TBPT (2 μM) for the indicated times. After the cells were stained, they were analyzed for cell cycle and apoptosis using flow cytometry.

RET(M918T) = biological target: T7, RET(M918T) (Homo sapiens, UniProt P07949, M918T); assay: KINOMEscan; assay type: binding; details: read-out: % Ctrl
T7 construct: purchased DiscoveRx KINOMEscan
T7 sequence (P07949 29-1114 M918T): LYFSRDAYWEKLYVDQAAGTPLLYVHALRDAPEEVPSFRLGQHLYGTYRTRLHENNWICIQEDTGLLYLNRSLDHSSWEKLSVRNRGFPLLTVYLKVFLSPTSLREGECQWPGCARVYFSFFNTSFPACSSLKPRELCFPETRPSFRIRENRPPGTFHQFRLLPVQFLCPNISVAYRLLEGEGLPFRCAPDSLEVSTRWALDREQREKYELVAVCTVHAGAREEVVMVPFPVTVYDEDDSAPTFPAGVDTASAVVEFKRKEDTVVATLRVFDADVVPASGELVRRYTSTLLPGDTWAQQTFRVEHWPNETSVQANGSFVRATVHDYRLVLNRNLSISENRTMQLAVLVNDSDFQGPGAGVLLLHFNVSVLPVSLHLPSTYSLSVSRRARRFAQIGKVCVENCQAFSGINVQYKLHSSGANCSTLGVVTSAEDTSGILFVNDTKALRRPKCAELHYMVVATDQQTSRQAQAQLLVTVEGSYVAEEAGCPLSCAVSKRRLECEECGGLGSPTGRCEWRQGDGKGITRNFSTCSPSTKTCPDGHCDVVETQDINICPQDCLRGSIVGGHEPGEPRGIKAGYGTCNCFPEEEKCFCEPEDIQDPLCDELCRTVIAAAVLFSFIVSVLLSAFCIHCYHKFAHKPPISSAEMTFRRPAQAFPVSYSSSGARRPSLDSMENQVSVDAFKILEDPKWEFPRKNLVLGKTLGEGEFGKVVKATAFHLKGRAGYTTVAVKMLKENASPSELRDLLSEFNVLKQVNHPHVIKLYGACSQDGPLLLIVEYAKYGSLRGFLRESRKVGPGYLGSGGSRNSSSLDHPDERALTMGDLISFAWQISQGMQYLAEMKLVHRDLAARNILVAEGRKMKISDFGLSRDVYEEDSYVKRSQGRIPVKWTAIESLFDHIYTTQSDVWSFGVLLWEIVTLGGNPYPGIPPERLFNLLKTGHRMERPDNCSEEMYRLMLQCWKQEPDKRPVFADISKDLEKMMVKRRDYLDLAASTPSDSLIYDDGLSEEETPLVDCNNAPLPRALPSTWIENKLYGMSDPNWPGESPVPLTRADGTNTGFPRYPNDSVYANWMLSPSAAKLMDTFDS

PIK3CA(E545A) = biological target: T8, PIK3CA(E545A) (Homo sapiens, UniProt P42336, E545A); assay: KINOMEscan; assay type: binding; details: read-out: % Ctrl
T8 construct: purchased DiscoveRx KINOMEscan
T8 sequence (P42336 whole entry E545A): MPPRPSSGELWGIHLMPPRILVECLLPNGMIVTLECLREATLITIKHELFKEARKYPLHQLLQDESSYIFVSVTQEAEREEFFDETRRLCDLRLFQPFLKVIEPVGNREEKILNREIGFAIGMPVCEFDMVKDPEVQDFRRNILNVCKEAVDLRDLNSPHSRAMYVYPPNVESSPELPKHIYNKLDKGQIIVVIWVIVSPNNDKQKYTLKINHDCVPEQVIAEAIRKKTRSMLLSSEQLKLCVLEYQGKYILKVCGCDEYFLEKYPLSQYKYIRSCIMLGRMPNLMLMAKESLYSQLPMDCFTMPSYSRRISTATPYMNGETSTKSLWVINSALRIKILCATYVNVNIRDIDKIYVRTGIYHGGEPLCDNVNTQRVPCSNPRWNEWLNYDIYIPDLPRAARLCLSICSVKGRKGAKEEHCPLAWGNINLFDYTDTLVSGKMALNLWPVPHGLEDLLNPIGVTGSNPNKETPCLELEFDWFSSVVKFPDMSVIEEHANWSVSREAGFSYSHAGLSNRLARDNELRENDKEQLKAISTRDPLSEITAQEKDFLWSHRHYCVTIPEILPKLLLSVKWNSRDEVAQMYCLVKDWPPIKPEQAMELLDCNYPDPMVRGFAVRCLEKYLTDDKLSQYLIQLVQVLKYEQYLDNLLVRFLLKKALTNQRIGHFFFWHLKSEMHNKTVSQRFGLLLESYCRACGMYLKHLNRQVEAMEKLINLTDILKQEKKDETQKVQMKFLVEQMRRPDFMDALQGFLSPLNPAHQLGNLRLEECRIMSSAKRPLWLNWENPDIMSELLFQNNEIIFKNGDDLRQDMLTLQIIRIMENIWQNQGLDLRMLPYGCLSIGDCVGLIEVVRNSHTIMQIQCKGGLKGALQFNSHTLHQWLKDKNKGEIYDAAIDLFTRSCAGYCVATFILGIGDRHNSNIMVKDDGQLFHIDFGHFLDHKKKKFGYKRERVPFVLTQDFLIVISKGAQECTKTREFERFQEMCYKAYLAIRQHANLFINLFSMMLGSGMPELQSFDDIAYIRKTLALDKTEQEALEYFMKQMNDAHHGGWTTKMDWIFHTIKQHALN

FLT3(K663Q) = biological target: T9, FLT3(K663Q) (Homo sapiens, UniProt P36888, K663Q); assay: KINOMEscan; assay type: binding; details: read-out: % Ctrl
T9 construct: purchased DiscoveRx KINOMEscan

KIT(L576P) = biological target: T10, KIT(L576P) (Homo sapiens, UniProt P10721, L576P); assay: KINOMEscan; assay type: binding; details: read-out: % Ctrl
T10 construct: purchased DiscoveRx KINOMEscan

[4] = toxicity in xenografted mice; details: TBPT 30 or 60 mg/kg x5, PTX 10 mg/kg x4, i.v.
Procedure: Five injections of vehicle and TBPT (30 or 60 mg/kg) were administered intravenously at days 1, 3, 5, 7 and 9 (arrows). Four injections of PTX (10 mg/kg) were administered intravenously at days 1, 3, 5 and 7. (a) The tumor volume was measured every other day. When the tumor volume in the solvent-treated group exceeded 1500 mm^3, the experiment was terminated. (b) Blood biochemical and hematological analyses. (c) The body weights of the mice were monitored every other day during the experiments. *P<0.05, Student's t-test with day 0, N=5
Figure 3 Histopathological examination of the major organs from TBPT or PTX-treated mouse tumor at the end of the experiments. The cross-sections of organs were stained with hematoxylin–eosin. […] The scale bars represent 50 μm and are uniform in each column
H460 and H460TaxR cells (5 × 10^6 cells in 100 μl PBS) were injected subcutaneously into the dorsal flank of each mouse. When the tumors reached volumes of 100 mm^3, the mice were divided randomly into four groups. The mice were treated every other day five times with intravenous injections of (1) vehicle (the solvent of TBPT: 60% PBS, 8% Cremophor EL, 8% EtOH, 12% poly propylene glycol and 12% PEG-400), (2) TBPT (30 mg/kg) or (3) TBPT (60 mg/kg). Another group was treated with PTX (10 mg/kg) every other day four times as the positive control. The tumor dimensions and body weights were measured every other day. The tumor volume was calculated according to a standard formula: volume=width^2 × length/2. The experiment was terminated and the mice were killed when the tumor volumes in the solvent-treated group exceeded 1500 mm^3. The mouse organs and blood were collected and used for hematoxylin–eosin staining and serum chemistry assay. TGI rates were assessed using the following formula: TGI=1− (Tt−T0)/(Ct−C0) × 100%. Tt and T0 indicate the tumor volumes of the treated group at days t and 0. Ct and C0 indicate the tumor volumes of the control group at days t and 0, respectively.

[5] = Caco-2 cell bi-directional transport assay; assay type: in vitro ADME; details: human; for Papp: Caco-2
From the text: (§2) As in vivo investigations are generally time consuming and expensive, it is advantageous to eliminate those compounds that are not suitable for animal experiments. One of the necessary steps is to screen the initial hits using assays testing their possible behaviors in vivo. To evaluate the drug-like properties of TBPT, a panel of in vitro assays was preformed (Table 1). The parallel artificial membrane permeability assay (PAMPA) was used to evaluate the cell permeability of the compounds. Compounds with a Pe >[…] are classified as highly permeable. […] The Caco-2 assay was used to predict the oral absorption values of the compounds in vivo. Compounds with a Caco-2 efflux ratio >2 may be subject to active efflux and should not be developed further. […] The half-life (T1/2) in human liver microsomes is used to predict the metabolism properties of compounds in vivo. […] A very long T1/2 (>24 h) increases the risk of cumulative toxicity and is not desirable. […] T1/2 in plasma indicates the stability of the drug in human blood; the high T1/2 values of these compounds indicated better stability in vivo. Plasma protein binding influences the distribution of drugs into body tissues, and compounds with high plasma protein binding (>99%) are limited in terms of the amount of free compound that are available to act on the targeted tissue.
(§3) The PAMPA and Caco-2 cell bi-directional transport assay of the derivatives were conducted as described in our previous report.[65], [66] The human liver microsome, plasma stability and plasma protein-binding assays were conducted following modified protocols reported by Cyprotex (Macclesfield, UK).[67], [68], [69], [70]

Caco-2 = Caco-2 cell bi-directional transport assay; assay type: in vitro ADME; details: Caco-2
From the text: as §2, §3

PIK3CA(Q546K) = biological target: T11, PIK3CA(Q546K) (Homo sapiens, UniProt P42336, Q546K); assay: KINOMEscan; assay type: binding; details: read-out: % Ctrl
T11 construct: purchased DiscoveRx KINOMEscan
T11 sequence (P42336 whole entry Q546K): as the sequence (P42336 whole entry E545A) above, with A545E, Q546K counted along it

caspases 8, 9 and 3/7 [6] = assay: Caspases activity assay in H460 cells; assay type: cell-based, human; details: H460, 2 μM, 6, 12 and 24 h
Procedure: as §1

EGFR(L861Q) = biological target: T12, EGFR(L861Q) (Homo sapiens, UniProt P00533, L861Q); assay: KINOMEscan; assay type: binding; details: read-out: % Ctrl
T12 construct: purchased DiscoveRx KINOMEscan
T12 sequence (P00533 25-1210 L861Q): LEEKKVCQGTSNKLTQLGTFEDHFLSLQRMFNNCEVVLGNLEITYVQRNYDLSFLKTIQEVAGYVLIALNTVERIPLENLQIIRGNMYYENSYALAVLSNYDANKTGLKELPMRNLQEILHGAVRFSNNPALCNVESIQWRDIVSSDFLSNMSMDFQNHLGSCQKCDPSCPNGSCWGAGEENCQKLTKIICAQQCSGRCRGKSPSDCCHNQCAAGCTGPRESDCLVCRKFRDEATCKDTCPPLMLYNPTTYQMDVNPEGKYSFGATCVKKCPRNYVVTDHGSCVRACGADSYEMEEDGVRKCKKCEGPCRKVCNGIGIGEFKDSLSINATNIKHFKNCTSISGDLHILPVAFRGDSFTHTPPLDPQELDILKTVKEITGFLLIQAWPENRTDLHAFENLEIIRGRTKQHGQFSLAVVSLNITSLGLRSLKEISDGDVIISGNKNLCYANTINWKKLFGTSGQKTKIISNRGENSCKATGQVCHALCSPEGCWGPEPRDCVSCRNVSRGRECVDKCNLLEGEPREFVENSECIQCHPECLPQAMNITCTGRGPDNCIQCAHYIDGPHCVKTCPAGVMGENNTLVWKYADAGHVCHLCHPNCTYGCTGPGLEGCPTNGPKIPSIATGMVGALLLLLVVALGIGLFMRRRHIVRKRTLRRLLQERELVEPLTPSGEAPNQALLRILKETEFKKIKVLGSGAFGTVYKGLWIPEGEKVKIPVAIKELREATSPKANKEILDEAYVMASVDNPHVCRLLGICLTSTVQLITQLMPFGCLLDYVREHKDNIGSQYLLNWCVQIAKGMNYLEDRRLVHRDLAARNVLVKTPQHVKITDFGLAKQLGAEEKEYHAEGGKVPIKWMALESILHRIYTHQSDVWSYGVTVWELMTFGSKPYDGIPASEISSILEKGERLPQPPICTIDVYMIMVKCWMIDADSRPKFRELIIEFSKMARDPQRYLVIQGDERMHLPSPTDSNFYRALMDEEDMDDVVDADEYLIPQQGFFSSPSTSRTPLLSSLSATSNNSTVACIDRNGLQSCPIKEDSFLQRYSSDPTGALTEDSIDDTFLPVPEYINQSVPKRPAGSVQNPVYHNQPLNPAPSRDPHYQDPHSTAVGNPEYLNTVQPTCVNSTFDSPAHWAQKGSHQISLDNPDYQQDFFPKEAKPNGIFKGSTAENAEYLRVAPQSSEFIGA

[7] = biological target: T13, ABL1(Y253F)-phosphorylated (Homo sapiens, UniProt P00519, Y253F); assay: KINOMEscan; assay type: binding; details: read-out: % Ctrl
T13 construct: purchased DiscoveRx KINOMEscan

MET(M1250T) = biological target: T14, MET(M1250T) (Homo sapiens, UniProt P08581, M1250T); assay: KINOMEscan; assay type: binding; details: read-out: % Ctrl
T14 construct: purchased DiscoveRx KINOMEscan
T14 sequence (P08581 25-1390 M1250T): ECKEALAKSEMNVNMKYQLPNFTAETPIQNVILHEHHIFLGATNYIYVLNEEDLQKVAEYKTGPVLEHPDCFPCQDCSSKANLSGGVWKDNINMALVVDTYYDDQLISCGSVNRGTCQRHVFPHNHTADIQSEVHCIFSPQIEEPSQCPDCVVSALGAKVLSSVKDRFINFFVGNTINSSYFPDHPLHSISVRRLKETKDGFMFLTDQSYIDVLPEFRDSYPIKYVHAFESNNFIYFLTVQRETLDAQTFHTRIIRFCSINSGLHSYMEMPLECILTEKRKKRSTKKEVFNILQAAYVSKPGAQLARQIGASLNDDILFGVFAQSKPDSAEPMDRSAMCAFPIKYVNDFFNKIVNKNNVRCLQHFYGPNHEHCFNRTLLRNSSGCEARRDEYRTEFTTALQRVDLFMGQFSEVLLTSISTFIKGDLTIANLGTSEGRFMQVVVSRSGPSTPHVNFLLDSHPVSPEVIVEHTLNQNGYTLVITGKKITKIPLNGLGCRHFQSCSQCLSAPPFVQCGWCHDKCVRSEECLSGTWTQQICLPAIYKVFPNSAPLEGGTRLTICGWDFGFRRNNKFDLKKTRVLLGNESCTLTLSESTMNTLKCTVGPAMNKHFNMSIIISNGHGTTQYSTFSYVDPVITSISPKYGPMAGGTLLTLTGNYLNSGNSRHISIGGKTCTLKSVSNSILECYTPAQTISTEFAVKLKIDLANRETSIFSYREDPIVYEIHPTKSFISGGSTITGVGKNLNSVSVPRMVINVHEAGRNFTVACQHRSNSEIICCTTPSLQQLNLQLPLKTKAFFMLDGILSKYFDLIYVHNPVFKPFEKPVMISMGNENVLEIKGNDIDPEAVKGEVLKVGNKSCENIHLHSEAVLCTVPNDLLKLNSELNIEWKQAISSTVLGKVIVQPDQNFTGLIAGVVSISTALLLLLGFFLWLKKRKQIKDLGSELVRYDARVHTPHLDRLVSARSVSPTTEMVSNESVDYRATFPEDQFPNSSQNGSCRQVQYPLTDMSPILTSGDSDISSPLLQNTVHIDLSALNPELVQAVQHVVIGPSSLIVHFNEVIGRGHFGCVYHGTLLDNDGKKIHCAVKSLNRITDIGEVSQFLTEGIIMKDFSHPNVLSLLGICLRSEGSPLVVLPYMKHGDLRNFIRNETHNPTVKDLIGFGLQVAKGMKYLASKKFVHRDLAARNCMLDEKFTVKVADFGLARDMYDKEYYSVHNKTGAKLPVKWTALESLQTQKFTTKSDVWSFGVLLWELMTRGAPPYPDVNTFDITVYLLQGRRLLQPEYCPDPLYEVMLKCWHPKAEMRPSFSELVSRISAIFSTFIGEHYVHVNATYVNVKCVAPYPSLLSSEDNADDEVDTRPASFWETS

Work on `Cc1ccc(C2=Nc3cccnc3S(=O)(=O)c3ccccc32)cc1` [TBPT, 6-(p-tolyl)benzo[f] pyrido[2,3-b][1,4] thiazepine 11,11-dioxide] yielded a half-life (plasma stability) greater than 50 h, a remaining binding at 5 µM (LRRK2(G2019S); 5 μM) of 86% and a remaining binding at 10 µM (LRRK2(G2019S); 10 μM) of 99%. The remaining binding at 5 µM (FLT3(D835H); 5 μM) was 100%, the remaining binding at 10 µM (FLT3(D835H); 10 μM) was 97% and the remaining binding at 5 µM (EGFR(G719C); 5 μM) was 73%. For the same compound, the remaining binding at 10 µM (EGFR(G719C); 10 μM) was 100%, the remaining binding at 5 µM (PKNB(M.tuberculosis); 5 μM) was 100% and the remaining binding at 10 µM (PKNB(M.tuberculosis); 10 μM) was 85%. For the same compound, the remaining binding at 5 µM ([1]; 5 μM) was 83%, the remaining binding at 10 µM ([1]; 10 μM) was 100% and the “activities of caspases 8, 9 and 3/7” value (caspases 8, 9 and 3/7 [2]) was “activated caspases 8, 9 and 3/7 in a time-dependent manner”. The remaining binding at 5 µM ([3]; 5 μM) was 76%, the remaining binding at 10 µM ([3]; 10 μM) was 91% and the “cell cycle arrest or apoptosis” value (mice hippocampus cells) was “very little cell cycle arrest or apoptosis”. It also gave a remaining binding at 5 µM (RET(M918T); 5 μM) of 99%, a remaining binding at 10 µM (RET(M918T); 10 μM) of 99% and a remaining binding at 5 µM (PIK3CA(E545A); 5 μM) of 100%. The remaining binding at 10 µM (PIK3CA(E545A); 10 μM) was 100%, the remaining binding at 5 µM (FLT3(K663Q); 5 μM) was 84% and the remaining binding at 10 µM (FLT3(K663Q); 10 μM) was 94%. For the same compound, the remaining binding at 5 µM (KIT(L576P); 5 μM) was 78%, the remaining binding at 10 µM (KIT(L576P); 10 μM) was 100% and the “toxicity to normal tissues (blood biochemical and hematological analyses, body weight, relative organ weights)” value [4] was “did not exhibit evident toxicity to normal tissues”. The efflux ratio ([5]; Caco-2, Caco-2, read-out: Efflux ratio (B2A/A2B)) was 0.4 to 0.8, the Papp ([5]; read-out: Caco-2 Papp A/B) was 34.5 ± 2.06 ×10⁻⁶ cm/s and the Papp ([5]; read-out: Caco-2 Papp B/A) was 20.6 ± 7 ×10⁻⁶ cm/s. For the same compound, the “Efflux ratio (B2A/A2B)” value (Caco-2) was 0.59±0.17, the remaining binding at 5 µM (PIK3CA(Q546K); 5 μM) was 100% and the remaining binding at 10 µM (PIK3CA(Q546K); 10 μM) was 94%. The “activities of caspases 8, 9 and 3/7” value (caspases 8, 9 and 3/7 [6]) was “activated caspases 8, 9 and 3/7 in a time-dependent manner”, the remaining binding at 5 µM (EGFR(L861Q); 5 μM) was 100% and the remaining binding at 10 µM (EGFR(L861Q); 10 μM) was 100%. The remaining binding at 5 µM ([7]; 5 μM) was 70%, the remaining binding at 10 µM ([7]; 10 μM) was 95% and the remaining binding at 5 µM (MET(M1250T); 5 μM) was 100%. For the same compound, the remaining binding at 10 µM (MET(M1250T); 10 μM) was 77%.
